Assay results as given in patent publication US12398355B2, “Micro physiological model for neuronal and muscular diseases and disorders” (Massachusetts Institute of Technology, priority 2019, dated 2025).

Tests used:
[1] = test system: 3D motor unit model (MN spheroid and skeletal muscle fiber bundle)
[2] = test system: 3D motor unit model (hESC-derived MN spheroid and iPSC-derived skeletal muscle fiber bundle with NMJ); assay type: cell-based, human
in vitro co-culture = assay: Side effects of high drug concentrations in in vitro co-culture; assay type: cell-based; conditions: in vitro co-culture condition
[3] = test system: ALS motor unit (iALS-MN spheroid and iPSC-derived skeletal muscle fiber bundle); assay: Drug treatment of ALS motor unit model, muscle contraction by optical stimulation; assay type: cell-based, human; conditions: 1-Hz optical stimulation, n=180; untreated ALS ~32.3%
Protocol: Epifluorescence and confocal images were acquired using a Zeiss Axiovert 200 microscope and an Olympus FV-1000 confocal microscope, respectively. 3D reconstruction and analysis of confocal images were performed with IMARIS software (Bitplane). Muscle contraction measurement was performed in a stage-top incubator (INUBG2TF-WSKM-SET, Tokai Hit) on Axiovert 200, and image sequences were captured using AxioVision. Automated tracking of the local deformation of the skeletal muscle cells and deflection of the pillars upon light excitation were carried out using ImageJ and Python script with an OpenCV package. Formulas for calculating muscle contraction force from pillar displacements include:
To avoid single-cell attachment to the glass bottom, the microfluidic device was incubated with 4% Pluronic F-127 (Sigma) in the incubator for 1 hour, rinsed with distilled water, and dried. […]
hESC-derived NSCs and iPSC-derived NSCs from a patient with sporadic ALS were infected with an AAV-CAG-ChR2H134R-tdTomato-WPRE plasmid to express a mutated variant of the light-sensitive ion channel, channelrhodopsin-2H134R. […] The cells were cultured for 4 days, expanded for another 3 days, and sorted by fluorescence-activated cell sorting (BD Biosciences, FACSAria II) with strong expression of tdTomato. […]

N[C@@H](CCC(=O)O)C(=O)O [glutamic acid]
average contraction force [1]: ~0.5 pN
average frequency of muscle contractions [1]: 0.7 Hz
morphology after prolonged treatment [1]: neurite regression and muscle atrophy
muscle contraction after prolonged treatment [1]: no muscle contraction was observed
muscle contraction force [1]: relatively decreased
muscle contraction frequency [1]: dropped
muscle contraction with chemical stimulation [1]: significant loss of function
muscle contraction with electrical stimulation [1]: no significant difference
neurotoxic effect / myotoxicity [1]: mainly caused a neurotoxic effect but no observable myotoxicity

α-bungarotoxin [αBTX]
muscle contraction in the presence of αBTX [2]: completely inhibited

NC1=N[C@H](O)[C@H]2[C@H]3O[C@]4(O)O[C@@H]([C@@H](O)[C@@]2(N1)[C@@H]4O)[C@]3(O)CO [TTX, tetrodotoxin]
muscle contraction after rinsing away the TTX [2]: partially recovered
muscle contraction under TTX [2]: completely prevented muscle contraction

COc1cc(Nc2c(C#N)cnc3cc(OCCCN4CCN(C)CC4)c(OC)cc23)c(Cl)cc1Cl [bosutinib]
concentration that can cause side effects (in vitro co-culture): over 800 uM

CO[C@H]1C[C@@H]2CC[C@@H](C)[C@@](O)(O2)C(=O)C(=O)N2CCCC[C@H]2C(=O)O[C@H]([C@H](C)C[C@@H]2CC[C@@H](O)[C@H](OC)C2)CC(=O)[C@H](C)/C=C(\C)[C@@H](O)[C@@H](OC)C(=O)[C@H](C)C[C@H](C)/C=C/C=C/C=C/1C [rapamycin]
concentration that can cause side effects (in vitro co-culture): over 1 uM
missed muscle contractions after light stimulation [3]: ~16.1%
